One assay concerns p-ERK. As to the kind of experiment: Western blotting of phosphorylated ERK in HHFDPC. The assay is classed as cell-based, human. The note with it: peptide 10 nM, 100 nM, 1 μM, 24 hours, FIG. 2. An excerpt: In the HHFDPC treated with the peptide of the present invention, changes in related factors that affect cell proliferation or differentiation were confirmed to determine whether the peptide of the present invention could promote proliferation and differentiation of HHFDPC by increasing them.
First, phosphorylated forms of AKT and ERK, which act as signaling molecules related to the proliferation of HHFDPC, were confirmed through Western blotting. Specifically, HHFDPC as in [Experiment Example 1-1] above was seeded at 4λ10^5 cells/well in a 6-well culture plate, cultured in MSC complete medium (mesenchymal stem cell complete media) for 24 hours, and then the medium was replaced with serum free MSC complete medium and cultured for another 24 hours. Then, the HHFDPC was treated with the peptide of SEQ ID NO: 1 prepared in the Preparation Example at concentrations of 10 nM, 100 nM, and 1 μM, respectively, and cultured at 37° C. for 24 hours. As a positive control, minoxidil was treated at a concentration of 1 μM, and as a negative control, HHFDPC without any treatment was used. Then, Western blotting was performed to detect phosphorylated AKT and phosphorylated ERK. […] After washing again with 0.1% PBS-T (0.1% Tween-20 in PBS) three times for 15 minutes each, p-AKT and p-ERK were detected by treatment with ECL solution (GE Healthcare, USA).
On the technique in general: A western blot detects proteins with antibodies after separation by electrophoresis.

The subject of another assay is β-catenin. As to the kind of experiment: Western blotting of β-catenin moved into the nucleus of HHFDPC. The note with it: peptide 10 nM, 100 nM, 1 μM, 24 hours, FIG. 3. The format is cell-based, human. How it is done:
In addition, in addition to p-AKT and p-ERK, in order to confirm the activation of β-catenin, which is known to affect cell proliferation and differentiation, whether β-catenin moved into the nucleus was confirmed through Western blotting. Specifically, the HHFDPC as in [Experiment Example 1-1] was seeded in a 6-well culture plate at an amount of 4λ10^5 cells/well, cultured in MSC complete medium (mesenchymal stem cell complete media) for 24 hours. Next, the medium was replaced with serum free MSC complete medium and cultured again for 24 hours. Then, the HHFDPC was treated with the peptide of SEQ ID NO: 1 prepared in the Preparation Example at concentrations of 10 nM, 100 nM, and 1 μM, respectively, and cultured at 37° C. for 24 hours. As a positive control, minoxidil was treated at a concentration of 1 μM, and as a negative control, HHFDPC without any treatment was used. After washing with PBS, proteins in the nucleus were isolated using a nuclear protein extraction kit (Thermo scientific, USA). After electrophoresis using a 10% SDS-PAGE gel, it was transferred to a PVDF membrane and blocked using 5% skim milk at room temperature for 30 minutes. […] After washing again with 0.1% PBS-T (0.1% Tween-20 in PBS) three times for 15 minutes each, β-catenin was detected by treatment with ECL solution (GE Healthcare, USA).

Take “GCGLFVAAC [peptide of the present invention]”: the “phosphorylation of ERK (p-ERK) compared to the control group not treated with the peptide” value in the assay on p-ERK is listed as “phosphorylation was found to be increased”. For the same sequence, the “β-catenin migration to the nucleus compared to the control group not treated with the peptide” value in the assay with β-catenin (HHFDPC nuclear protein, Western blotting) is on record as “migration due to activation of β-catenin increased”. Moreover, in the assay on β-catenin (HHFDPC), the “concentration dependence of β-catenin activation” value is listed as “further promoted depending on the concentration”.

These data come from patent US20240415920A1, “PEPTIDE HAVING ACTIVITY OF PREVENTING HAIR LOSS OR PROMOTING HAIR GROWTH, AND USE THEREOF” (CAREGEN CO., LTD., priority 2021, published 2024).
